Broadly, the Ki is a measure of affinity in units of concentration, obtained from inhibition or displacement.

Consider 30 compounds from patent publication US7250442B2, “Dihydroindol-2-one derivatives as steroid hormone nuclear receptor modulators” (Eli Lilly and Company, priority 2003, dated 2007).

In the test the target is T1, glucocorticoid receptor (Homo sapiens, UniProt P04150).
T1 construct: host or cells: A549 human lung epithelial cells (sonicated cell extract)
T1 sequence (P04150 1-777): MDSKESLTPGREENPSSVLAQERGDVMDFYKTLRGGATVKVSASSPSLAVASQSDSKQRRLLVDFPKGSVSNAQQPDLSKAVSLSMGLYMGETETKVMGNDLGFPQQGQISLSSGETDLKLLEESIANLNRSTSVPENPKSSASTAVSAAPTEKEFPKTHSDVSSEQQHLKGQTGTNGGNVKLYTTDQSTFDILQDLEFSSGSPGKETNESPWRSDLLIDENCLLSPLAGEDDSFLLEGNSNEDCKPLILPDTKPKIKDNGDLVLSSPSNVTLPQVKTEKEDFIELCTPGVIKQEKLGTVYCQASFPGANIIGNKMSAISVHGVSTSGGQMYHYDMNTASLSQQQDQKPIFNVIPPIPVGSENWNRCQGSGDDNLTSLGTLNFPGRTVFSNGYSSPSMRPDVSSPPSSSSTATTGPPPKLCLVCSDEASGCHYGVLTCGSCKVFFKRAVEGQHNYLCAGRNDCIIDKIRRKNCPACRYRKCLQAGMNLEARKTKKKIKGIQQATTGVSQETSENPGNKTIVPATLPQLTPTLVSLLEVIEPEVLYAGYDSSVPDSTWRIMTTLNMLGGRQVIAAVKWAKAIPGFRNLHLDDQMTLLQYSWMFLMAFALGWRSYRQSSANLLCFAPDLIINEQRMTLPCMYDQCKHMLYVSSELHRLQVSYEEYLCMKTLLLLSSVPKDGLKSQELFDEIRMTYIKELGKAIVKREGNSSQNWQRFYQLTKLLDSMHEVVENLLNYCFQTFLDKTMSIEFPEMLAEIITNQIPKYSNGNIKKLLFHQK
Nature of the test: Glucocorticoid Receptor Binding Assay ([3H]-dexamethasone displacement, A549 cell extract). The conditions noted are these: A549 human lung epithelial cell extract, 1.86 nM [3H]-dexamethasone; read-out: GR Ki. In short, it runs like this: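 A549 cell extract (50-200 ug; buffer 50 mM Tris-HCl pH 7.2 with glycerol, NaCl, MgCl2, EDTA, 10 mM molybdate) incubated with 1.86 nM [3H]-dexamethasone and test compound, 16 h at 4 °C. Unbound ligand removed with dextran-coated charcoal; bound radioactivity counted. IC50 converted to Ki via Cheng-Prusoff.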

As to `Cc1cc(C2(c3cc(C)c(O)c(C)c3)C(=O)N(Cc3ccc(F)cc3)c3ccccc32)cc(C)c1O` [Example 2], the Ki was at most 500 nM. With `Cc1cc(C2(c3cc(C)c(O)c(C)c3)C(=O)N(Cc3ccc(C(C)(C)C)cc3)c3ccccc32)cc(C)c1O` [Example 7, 1-(4-tert-Butyl-benzyl)-3,3-bis-(4-hydroxy-3,5-dimethyl-phenyl)-1,3-dihydro-indol-2-one], the Ki was at most 1000 nM.

Take `Cc1cc(C2(c3cc(C)c(O)c(C)c3)C(=O)N(Cc3cccc4ccccc34)c3ccccc32)cc(C)c1O` [Example 10, 3,3-Bis-(4-hydroxy-3,5-dimethyl-phenyl)-1-naphthalen-1-ylmethyl-1,3-dihydro-indol-2-one]: the Ki is at most 10000 nM. To `COc1ccc2c(c1)C(c1cc(C)c(O)c(C)c1)(c1cc(C)c(O)c(C)c1)C(=O)N2Cc1ccccc1` [Example 16, 1-Benzyl-3,3-bis-(4-hydroxy-3,5-dimethyl-phenyl)-5-methoxy-1,3-dihydro-indol-2-one] belongs at most 500 nM; to `Cc1cc(C2(c3ccc(O)cc3)C(=O)N(Cc3ccccc3)c3ccccc32)cc(C)c1O` (stereo not drawn) [Example 29, 1-Benzyl-3-(4-hydroxy-3,5-dimethyl-phenyl)-3-(4-hydroxy-phenyl)-1,3-dihydro-indol-2-one], at most 500 nM. In the case of `COc1ccccc1C(=O)CN1C(=O)C(c2cc(C)c(O)c(C)c2)(c2cc(C)c(O)c(C)c2)c2ccccc21` [Example 44, 3,3-Bis-(4-hydroxy-3,5-dimethyl-phenyl)-1-[2-(2-methoxy-phenyl)-2-oxo-ethyl]-1,3-dihydro-indol-2-one] it was at most 500 nM; in that of `COc1cccc(C(=O)CN2C(=O)C(c3cc(C)c(O)c(C)c3)(c3cc(C)c(O)c(C)c3)c3ccccc32)c1` [Example 45, 3,3-Bis-(4-hydroxy-3,5-dimethyl-phenyl)-1-[2-(3-methoxy-phenyl)-2-oxo-ethyl]-1,3-dihydro-indol-2-one], at most 500 nM. In the case of `COc1ccc(C(=O)CN2C(=O)C(c3cc(C)c(O)c(C)c3)(c3cc(C)c(O)c(C)c3)c3ccccc32)cc1` [Example 46, 3,3-Bis-(4-hydroxy-3,5-dimethyl-phenyl)-1-[2-(4-methoxy-phenyl)-2-oxo-ethyl]-1,3-dihydro-indol-2-one] it was at most 500 nM; in that of `COc1ccc(OC)c(C(=O)CN2C(=O)C(c3cc(C)c(O)c(C)c3)(c3cc(C)c(O)c(C)c3)c3ccccc32)c1` [Example 49, 1-[2-(2,5-Dimethoxy-phenyl)-2-oxo-ethyl]-3,3-bis-(4-hydroxy-3,5-dimethyl-phenyl)-1,3-dihydro-indol-2-one], at most 500 nM.

`Cc1cc(C2(c3cc(C)c(O)c(C)c3)C(=O)N(Cc3ccccc3C#N)c3ccccc32)cc(C)c1O` [Example 51, 2-[3,3-Bis-(4-hydroxy-3,5-dimethyl-phenyl)-2-oxo-2,3-dihydro-indol-1-ylmethyl]-benzonitrile]: the Ki is at most 500 nM.

Regarding `Cc1cc(C2(c3cc(C)c(O)c(C)c3)C(=O)N(Cc3ccc(Cl)c(Cl)c3)c3ccccc32)cc(C)c1O` [Example 52, 1-(3,4-Dichloro-benzyl)-3,3-bis-(4-hydroxy-3,5-dimethyl-phenyl)-1,3-dihydro-indol-2-one], the Ki was at most 500 nM. For the compound `COC(=O)c1cccc(CN2C(=O)C(c3cc(C)c(O)c(C)c3)(c3cc(C)c(O)c(C)c3)c3ccccc32)c1` [Example 55, 3-[3,3-Bis-(4-hydroxy-3,5-dimethyl-phenyl)-2-oxo-2,3-dihydro-indol-1-ylmethyl]-benzoic acid methyl ester], the Ki is at most 500 nM.

For the compound `Cc1cc(C2(c3cc(C)c(O)c(C)c3)C(=O)N(Cc3ccc(C(F)(F)F)cc3)c3ccccc32)cc(C)c1O` [Example 57, 3,3-Bis-(4-hydroxy-3,5-dimethyl-phenyl)-1-(4-trifluoromethyl-benzyl)-1,3-dihydro-indol-2-one], the Ki was at most 500 nM. Consider `Cc1cc(C2(c3cc(C)c(O)c(C)c3)C(=O)N(Cc3cccc(Cl)c3)c3ccccc32)cc(C)c1O` [Example 60, 1-(3-Chloro-benzyl)-3,3-bis-(4-hydroxy-3,5-dimethyl-phenyl)-1,3-dihydro-indol-2-one], for which the Ki is at most 500 nM. In the case of `Cc1cc(C2(c3cc(C)c(O)c(C)c3)C(=O)N(Cc3cccc(C(F)(F)F)c3)c3ccccc32)cc(C)c1O` [Example 61, 3,3-Bis-(4-hydroxy-3,5-dimethyl-phenyl)-1-(3-trifluoromethyl-benzyl)-1,3-dihydro-indol-2-one], the Ki was at most 500 nM. To `Cc1cc(C2(c3cc(C)c(O)c(C)c3)C(=O)N(Cc3ccc(Br)cc3F)c3ccccc32)cc(C)c1O` [Example 81, 1-(4-Bromo-2-fluoro-benzyl)-3,3-bis-(4-hydroxy-3,5-dimethyl-phenyl)-1,3-dihydro-indol-2-one] belongs at most 500 nM; to `Cc1cc(C2(c3cc(C)c(O)c(C)c3)C(=O)N(Cc3ccc(O)cc3)c3ccccc32)cc(C)c1O` [Example 88, 1-(4-Hydroxy-benzyl)-3,3-bis-(4-hydroxy-3,5-dimethyl-phenyl)-1,3-dihydro-indol-2-one], at most 500 nM; to `Cc1nc(CN2C(=O)C(c3cc(C)c(O)c(C)c3)(c3cc(C)c(O)c(C)c3)c3ccccc32)cs1` [Example 89, 3,3-Bis-(4-hydroxy-3,5-dimethyl-phenyl)-1-(2-methyl-thiazol-4-ylmethyl)-1,3-dihydro-indol-2-one], at most 1000 nM. To `Cc1ccc2c(c1)C(c1cc(C)c(O)c(C)c1)(c1cc(C)c(O)c(C)c1)C(=O)N2Cc1csc(C)n1` [Example 93, 3,3-Bis-(4-hydroxy-3,5-dimethyl-phenyl)-5-methyl-1-(2-methyl-thiazol-4-ylmethyl)-1,3-dihydro-indol-2-one] belongs at most 10000 nM. In the case of `Cc1cc(C2(c3cc(C)c(O)c(C)c3)C(=O)N(Cc3ccccn3)c3ccccc32)cc(C)c1O` [Example 100, 3,3-Bis-(4-hydroxy-3,5-dimethyl-phenyl)-1-pyridin-2-ylmethyl-1,3-dihydro-indol-2-one] it was at most 500 nM; in that of `Cc1cc(C2(c3cc(C)c(O)c(C)c3)C(=O)N(CC3CC3)c3ccccc32)cc(C)c1O` [Example 105, 1-Cyclopropylmethyl-3,3-bis-(4-hydroxy-3,5-dimethyl-phenyl)-1,3-dihydro-indol-2-one], at most 500 nM. Regarding `Cc1cc(C2(c3cc(C)c(O)c(C)c3)C(=O)N(Cc3c(C)cccc3C)c3ccccc32)cc(C)c1O` [Example 107, 1-(2,6-Dimethyl-benzyl)-3,3-bis-(4-hydroxy-3,5-dimethyl-phenyl)-1,3-dihydro-indol-2-one], the Ki was at most 500 nM. In the case of `Cc1cc(C2(c3cc(C)c(O)c(C)c3)C(=O)N(Cc3cc(C(F)(F)F)ccc3F)c3ccccc32)cc(C)c1O` [Example 112, 1-(2-Fluoro-5-trifluoromethyl-benzyl)-3,3-bis-(4-hydroxy-3,5-dimethyl-phenyl)-1,3-dihydro-indol-2-one] it was at most 500 nM; in that of `Cc1cc(C2(c3cc(C)c(O)c(C)c3)C(=O)N(C3CCCC3)c3ccccc32)cc(C)c1O` [Example 114, 1-Cyclopentyl-3,3-bis-(4-hydroxy-3,5-dimethyl-phenyl)-1,3-dihydro-indol-2-one], at most 500 nM. In the case of `Cc1cc(C2(c3cc(C)c(O)c(C)c3)C(=O)N(Cc3ccc(N)cc3)c3ccccc32)cc(C)c1O` [Example 117, 11-(4-Amino-benzyl)-3,3-bis-(4-hydroxy-3,5-dimethyl-phenyl)-1,3-dihydro-indol-2-one] it was at most 500 nM; in that of `Cc1cc(C2(c3cc(C)c(O)c(C)c3)C(=O)N(Cc3cccc(N)c3)c3ccccc32)cc(C)c1O` [Example 118, 1-(3-Amino-benzyl)-3,3-bis-(4-hydroxy-3,5-dimethyl-phenyl)-1,3-dihydro-indol-2-one], at most 500 nM; in that of `Cc1cc(C2(c3cc(C)c(O)c(C)c3)C(=O)N(CCc3scnc3C)c3ccccc32)cc(C)c1O` [Example 121, 3,3-Bis-(4-hydroxy-3,5-dimethyl-phenyl)-1-[2-(4-methyl-thiazol-5-yl)-ethyl]-1,3-dihydro-indol-2-one], at most 500 nM. `COc1ccc(N2C(=O)C(c3cc(C)c(O)c(C)c3)(c3cc(C)c(O)c(C)c3)c3ccccc32)cc1` [Example 128, 3,3-Bis-(4-hydroxy-3,5-dimethyl-phenyl)-1-(4-methoxy-phenyl)-1,3-dihydro-indol-2-one]: the Ki is at most 500 nM. For the compound `COc1cccc(N2C(=O)C(c3cc(C)c(O)c(C)c3)(c3cc(C)c(O)c(C)c3)c3ccccc32)c1` [Example 134, 3,3-Bis-(4-hydroxy-3,5-dimethyl-phenyl)-1-(3-methoxy-phenyl)-1,3-dihydro-indol-2-one], the Ki is at most 500 nM.

`Cc1cc(C2(c3cc(C)c(O)c(C)c3)C(=O)N(c3cccnc3)c3ccccc32)cc(C)c1O` [Example 135, 3,3-Bis-(4-hydroxy-3,5-dimethyl-phenyl)-1-pyridin-3-yl-1,3-dihydro-indol-2-one]: the Ki was at most 500 nM.
